For experiment [1], the system named is Wnt pathway activity (SW480 colon carcinoma cells stably expressing the Sp5-Luc reporter). Put plainly: Wnt pathway activity screening assay (Sp5-Luc reporter gene assay). Conditions: Homo sapiens, SW480, Table 4; SW480 cells stably expressing Sp5-Luc reporter, 10-point dose-response from 10 μM, 36 to 48 hours.
Experiment [2] has as its system primary human mesenchymal stem cells (hMSCs). Put plainly: Chondrogenesis screening using primary human mesenchymal stem cells. Type of experiment: cell-based. Conditions: Homo sapiens, Mesenchymal stem cells, hMSC chondrogenesis; for EC50: concentration required to induce 50% levels of chondrogenesis with TGF-β3 as positive control, read-out: Conc (nM) of 50% TGF-β3 activity; for Emax: maximum activity relative to TGF-β3 (10 ng/mL) positive control, read-out: Max. Activity as % TGF-β3 activity. The method in brief:
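Derived values are EC50 for 50% chondrogenesis, maximal activity and the dose giving it. These come from nodule area in passage 3–6 primary hMSCs, expressed as fold change over the mean of 3 same-plate DMSO wells, 2–3 replicates per concentration. TGF-β3 served as positive control.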

The target in another experiment is CLK3 kinase (Homo sapiens, UniProt P49761). Put plainly: CLK3 kinase activity assay (Z-lyte FRET).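 Also: kinase activity read as coumarin/fluorescein emission ratio by FRET, unphosphorylated peptide as 0% and phosphorylated peptide as 100% control, values from non-linear regression of dose-response curves.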 Type of experiment: biochemical. Conditions: Z-lyte Ser/Thr 18 peptide, 156 μM ATP, 1 h at room temperature.
CLK3 kinase, sequence (P49761 whole entry): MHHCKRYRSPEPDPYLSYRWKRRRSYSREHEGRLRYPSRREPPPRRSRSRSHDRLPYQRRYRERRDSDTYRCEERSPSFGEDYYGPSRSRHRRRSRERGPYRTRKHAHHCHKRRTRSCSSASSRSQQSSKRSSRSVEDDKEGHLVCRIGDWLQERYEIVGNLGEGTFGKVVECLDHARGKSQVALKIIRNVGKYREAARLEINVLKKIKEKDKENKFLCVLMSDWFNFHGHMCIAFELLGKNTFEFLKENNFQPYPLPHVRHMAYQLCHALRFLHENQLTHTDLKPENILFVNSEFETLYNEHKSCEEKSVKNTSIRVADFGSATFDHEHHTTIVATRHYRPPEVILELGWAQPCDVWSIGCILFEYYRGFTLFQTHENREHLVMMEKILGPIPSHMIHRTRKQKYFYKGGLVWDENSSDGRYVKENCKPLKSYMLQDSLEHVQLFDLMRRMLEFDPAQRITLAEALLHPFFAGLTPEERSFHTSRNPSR
In another experiment the target is CLK2 kinase (Homo sapiens, UniProt P49760). The experiment is described as follows: CLK2 kinase activity assay (Z-lyte FRET).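 Also: FRET read-out as coumarin to fluorescein emission ratio, unphosphorylated peptide as 0% and phosphorylated peptide as 100% controls, duplicate reactions, non-linear regression fit of dose-response curves.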 Type of experiment: biochemical. Conditions: Z-lyte Ser/Thr 6 peptide, 60 μM ATP, 1 h at room temperature.
CLK2 kinase, sequence (P49760 whole entry): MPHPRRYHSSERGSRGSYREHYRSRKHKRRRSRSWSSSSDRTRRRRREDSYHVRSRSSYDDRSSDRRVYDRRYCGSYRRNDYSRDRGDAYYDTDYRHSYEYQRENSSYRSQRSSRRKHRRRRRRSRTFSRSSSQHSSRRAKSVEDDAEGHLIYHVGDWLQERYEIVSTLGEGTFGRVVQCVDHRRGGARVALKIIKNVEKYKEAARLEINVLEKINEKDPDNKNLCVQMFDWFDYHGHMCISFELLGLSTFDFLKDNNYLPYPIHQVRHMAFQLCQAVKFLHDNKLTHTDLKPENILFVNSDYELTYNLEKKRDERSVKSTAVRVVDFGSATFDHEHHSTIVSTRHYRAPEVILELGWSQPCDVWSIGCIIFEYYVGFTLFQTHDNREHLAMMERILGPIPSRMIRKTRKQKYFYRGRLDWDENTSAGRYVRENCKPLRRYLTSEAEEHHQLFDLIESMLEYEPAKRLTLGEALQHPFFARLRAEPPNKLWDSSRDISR

Protocol for CLK3 kinase: This is a non-radioactive assay using fluorescence resonance energy transfer (FRET) between coumarin and fluorescein to detect kinase activity which is represented as a ratio of coumarin emission/fluorescein emission.
The mixture was allowed to incubate with the representative compounds for one hour at room temperature. All reactions were performed in duplicate. Unphosphorylated (“0% Control”) and phosphorylated (“100% control”) forms of Ser/Thr 18 served as control reactions. Additionally, an 11-point dose-response curve of Staurosporine (1 μM top) was run to serve as a positive compound control.
After incubation, Development Reagent A was diluted in Development Buffer then added to the reaction and allowed to further incubate for one hour at room temperature.
Dose-response curves were generated and inhibitory concentration (IC50) values were calculated using non-linear regression curve fit in the Dotmatics' Studies Software (Bishops Stortford, UK).

`CN(C)CCNc1cc(F)cc(-c2cccc3[nH]c(-c4n[nH]c5ccc(-c6cncnc6)nc45)cc23)c1` [compound 516]: the EC50 in experiment [1] was 420 nM; in experiment [2] it was 10 nM; on CLK3 kinase, 63 nM; at CLK2 kinase, 5 nM. For the same molecule, the Emax in experiment [2] was determined as 181%.
On the same counts, the results for `CC(C)(C)C(=O)Nc1cncc(-c2ccc3[nH]nc(-c4nc5c(-c6ccc(F)s6)ccnc5[nH]4)c3c2)c1` [compound 262] are 16.7 nM, 30 nM, 754 nM, 85 nM and 120%.
With `CN1CCN(c2nccc3[nH]c(-c4n[nH]c5ccc(-c6cncc(CN7CCCC7)c6)cc45)cc23)CC1` [compound 492], the EC50 in experiment [1] was 9380 nM; at CLK3 kinase, 885 nM; on CLK2 kinase, 12 nM. Also, in experiment [2], the Emax came out at 31%.
As to `CC(C)Nc1cncc(-c2cnc3[nH]nc(-c4nc5c(-c6cc(F)cc(NCCN(C)C)c6)nccc5[nH]4)c3c2)c1` [compound 283], the EC50 in experiment [1] was 154 nM; in experiment [2] it was 30 nM; at CLK3 kinase, 33 nM; on CLK2 kinase it was 4 nM. Further, in experiment [2], the Emax was found to be 82.9%.
In the case of `CN1CCN(c2ccnc3[nH]c(-c4n[nH]c5ccc(-c6cncc(N)c6)nc45)nc23)CC1` [compound 216], the EC50 in experiment [1] was over 10000 nM; at CLK3 kinase it was 843 nM; at CLK2 kinase, 2 nM. Also, in experiment [2], the Emax came out at 46.9%.
Consider `COc1ccc(NC(=O)c2n[nH]c3ccc(-c4cncc(CN5CCCC5)c4)cc23)cn1` [compound 71], for which the EC50 in experiment [1] is 50 nM; in experiment [2], 30 nM; at CLK3 kinase it was 109 nM; at CLK2 kinase, 2 nM. In addition, the Emax in experiment [2] came to 63.1%.
For the molecule `c1cc2[nH]c(-c3n[nH]c4ccc(-c5cncc(CN6CCCCC6)c5)cc34)cc2c(N2CCCCC2)n1` [compound 469], the EC50 came to 4210 nM in experiment [1], 470 nM at CLK3 kinase and 6 nM at CLK2 kinase. Besides, the Emax in experiment [2] was 48.1%.
For `CC(C)C(=O)Nc1cncc(-c2ccc3[nH]nc(-c4nc5c(-c6cccnc6)cncc5[nH]4)c3c2)c1` [compound 186], the EC50 in experiment [1] was determined as 5.1 nM; at CLK3 kinase, 37 nM; at CLK2 kinase, 4 nM. Also, the Emax in experiment [2] is 34.4%.
The like results for `Fc1cccc(-c2nccc3[nH]c(-c4n[nH]c5ccc(-c6cncc(CN7CCCCC7)c6)nc45)cc23)c1` [compound 312] were, in that order, 3750 nM, 252 nM, 4 nM and 48%.
Consider `CN(C)c1cncc(-c2ccc3[nH]nc(-c4nc5c(-c6cccs6)cncc5[nH]4)c3n2)c1` [compound 258], for which the EC50 in experiment [1] amounted to 710 nM; in experiment [2], 10 nM; on CLK3 kinase it was 83 nM; on CLK2 kinase, 2 nM. Also, the Emax in experiment [2] came to 65.6%.
For `Oc1cncc(-c2ccc3[nH]nc(-c4nc5c(-c6cccc(F)c6)cccc5[nH]4)c3c2)c1` [compound 143], the EC50 in experiment [1] is 11 nM; at CLK3 kinase, 45 nM; at CLK2 kinase it was 17 nM. The Emax in experiment [2] came to 52.2%.
On the same counts, the results for `CCC(=O)Nc1cncc(-c2cnc3[nH]nc(-c4cc5c(-c6cccc(F)c6)cncc5[nH]4)c3c2)c1` [compound 305] are 246 nM, 33 nM, 3 nM and 113%.
The like results for `Nc1cncc(-c2cnc3[nH]nc(-c4cc5c(-c6ccncc6)cncc5[nH]4)c3c2)c1` [compound 379] were, in that order, over 10000 nM, 69 nM, 4 nM and 31.5%.
Consider `Cc1ccc(-c2cncc3[nH]c(-c4n[nH]c5cnc(-c6cncc(N)c6)cc45)nc23)s1` [compound 274], for which the EC50 in experiment [1] was found to be 10.9 nM; in experiment [2], 100 nM; on CLK3 kinase, 203 nM; at CLK2 kinase it was 11 nM. Besides, in experiment [2], the Emax worked out at 162%.
On the same counts, the results for `CN(C)CCNc1cc(F)cc(-c2cncc3[nH]c(-c4n[nH]c5ncc(-c6cccnc6)cc45)nc23)c1` [compound 278] are 21 nM, 300 nM, 36 nM, 5 nM and 129%.
As to `c1csc(-c2nccc3[nH]c(-c4n[nH]c5cnc(-c6cncc(CN7CCCCC7)c6)cc45)cc23)c1` [compound 509], the EC50 in experiment [1] came to 3680 nM; in experiment [2], 10 nM; at CLK3 kinase, 140 nM; at CLK2 kinase it was 6 nM. For the same molecule, the Emax in experiment [2] is 59%.
In the case of `c1csc(-c2cncc3[nH]c(-c4n[nH]c5ncc(-c6cncc(CNCC7CCCC7)c6)cc45)nc23)c1` [compound 259], the EC50 in experiment [1] was found to be 98 nM; at CLK3 kinase, 167 nM; on CLK2 kinase, 4 nM. In addition, in experiment [2], the Emax was 74.6%.
For the molecule `CS(=O)(=O)NCc1cc(F)cc(-c2nccc3[nH]c(-c4n[nH]c5ccc(-c6cncnc6)cc45)nc23)c1` [compound 293], the EC50 in experiment [1] came out at 40.5 nM; in experiment [2], 30 nM; on CLK3 kinase it was 186 nM; on CLK2 kinase it was 16 nM. Further, the Emax in experiment [2] turned out to be 73.1%.
With `CC(C)Nc1cncc(-c2cnc3[nH]nc(-c4cc5c(N6CCCCC6)nccc5[nH]4)c3c2)c1` [compound 463], the results for the EC50 (in experiment [1]; at CLK3 kinase; at CLK2 kinase) were 3410 nM, 1280 nM and 13 nM, respectively. In experiment [2], the Emax amounted to 33.6%.
For `O=C(Nc1ccnc(C(F)(F)F)c1)c1n[nH]c2ccc(-c3cncc(CN4CCCCC4)c3)cc12` [compound 80], the EC50 in experiment [1] was found to be 36.4 nM; in experiment [2] it was 100 nM; on CLK3 kinase it was 93 nM; at CLK2 kinase, 3 nM. In experiment [2], the Emax turned out to be 69%.
On the same counts, the results for `CN(C)CCNc1cc(F)cc(-c2cccc3[nH]c(-c4n[nH]c5cnc(-c6cncc(O)c6)cc45)cc23)c1` [compound 515] are 405 nM, 10 nM, 109 nM, 5 nM and 66.4%.
The like results for `CC(C)Nc1cncc(-c2cc3c(-c4cc5c(-c6cccnc6)ccnc5[nH]4)n[nH]c3cn2)c1` [compound 363] were, in that order, over 10000 nM, 10 nM, 9840 nM, 8 nM and 77%.
Consider `Nc1cncc(-c2ccc3[nH]nc(-c4cc5c(-c6ccncc6)ccnc5[nH]4)c3n2)c1` [compound 382], for which the EC50 is over 10000 nM in experiment [1], 63 nM at CLK3 kinase and 4 nM at CLK2 kinase. Moreover, the Emax in experiment [2] was determined as 26.9%.
Take `Cc1cn(-c2nccc3[nH]c(-c4n[nH]c5ccc(-c6cncc(NC(=O)CC(C)C)c6)cc45)nc23)cn1` [compound 224]: the EC50 was determined as 10.4 nM in experiment [1], 30 nM in experiment [2], 56 nM on CLK3 kinase and 12 nM at CLK2 kinase. For the same molecule, the Emax in experiment [2] is 73.7%.
On the same counts, the results for `Oc1cncc(-c2ccc3[nH]nc(-c4nc5c(-c6cccc(F)c6)cncc5[nH]4)c3n2)c1` [compound 145] are over 10000 nM, 20.6 nM, 74 nM, 5 nM and 53.6%.
On the same counts, the results for `CN(C)CCOc1cncc(-c2ccc3[nH]nc(-c4nc5c(-c6cccs6)cccc5[nH]4)c3n2)c1` [compound 261] are 3110 nM, 10 nM, 150 nM, 2 nM and 142%.
As for `CS(=O)(=O)NCc1cc(F)cc(-c2cncc3[nH]c(-c4n[nH]c5ncc(-c6cncc(CN7CCCCC7)c6)cc45)cc23)c1` [compound 535], the results for the EC50 (in experiment [1]; on CLK3 kinase; on CLK2 kinase) were 1850 nM, 53 nM and 6 nM, respectively. The Emax in experiment [2] worked out at 22.7%.
On the same counts, the results for `CCNCc1cncc(-c2ccc3[nH]nc(-c4cc5cnccc5[nH]4)c3c2)c1` [compound 439] are 1040 nM, 49 nM, 2 nM and 317%.
As for `CN1CCN(c2nccc3[nH]c(-c4n[nH]c5ccc(-c6cncc(N)c6)nc45)nc23)CC1` [compound 214], the EC50 in experiment [1] was over 10000 nM; in experiment [2] it was 100 nM; on CLK3 kinase, 344 nM; on CLK2 kinase it was 2 nM. The Emax in experiment [2] is 135%.
The like results for `c1cncc(-c2cc3c(-c4nc5c(-c6cccnc6)cccc5[nH]4)n[nH]c3cn2)c1` [compound 179] were, in that order, 92.4 nM, 100 nM, 969 nM, 11 nM and 93%.
Turning to `Fc1cccc(-c2ccnc3[nH]c(-c4n[nH]c5ncc(-c6cn[nH]c6)cc45)nc23)c1` [compound 153], the EC50 in experiment [1] turned out to be 30.2 nM; in experiment [2] it was 100 nM; at CLK3 kinase it was 93 nM; on CLK2 kinase it was 11 nM. Also, the Emax in experiment [2] stood at 110%.
